# Where two headings read alike, the source gives them in different places.
# What was measured:
# MDA-MB-231 cells = test: Time-lapse cinemicrography random motility; type: cell-based, human
# Experimental: (§1) Random motility analyses were performed to quantify the effect of the blocking Rhamm and CD44 antibodies, HA binding peptide, hyaluronan, and the MEK inhibitor, PD098059 on cell motility. Cells were seeded on T-25 flasks (Costar, Cambridge. Mass.) at 1×10^5 cells/flask. Cells were incubated with anti-Rhamm antibody (30 μg/ml), anti-CD44 antibody (30 μg/ml), a mixture of anti-Rhamm (30 μg/ml) and anti-CD44 antibodies ([…]), HA binding peptide (1 μg/ml) or its scrambled control (1 μg/ml), and/or 50 μM PD098059 for 30 minutes prior to filming. Alternatively, cells were stimulated with 50 μg/L of HA immediately prior to filming. As a control, a mixture of mouse and rabbit IgG (30 μg/ml each), DMSO (for PD098059) or PBS (for HA) were used. Cell locomotion was monitored for a period of 6 hours using a 10× modulation objective (Zeiss, Germany) attached to a Zeiss Axiovert 100 inverted microscope equipped with Hoffman Modulation contrast optical filters (Greenvale, N.Y.) and a 37° C. heated stage. Cell images were captured with a CCD video camera module attached to a Hamamatsu CCD camera controller. Motility was assessed using Northern Exposure 2.9 image analysis software (Empix Imaging, Mississauga, Ontario). Nuclear displacement of 20-30 cells was measured and data were subjected to statistical analysis (see below). Each experiment was repeated at least three times. PD098059 MEK inhibitor was used to test the involvement of the MAP kinase pathway in the motility of these cells. The cells were incubated with the MEK1 inhibitor at 50 μM in complete culture medium 30 minutes before the beginning of motility filming. DMSO alone was used as a control. The results of motility analyses were expressed as means (μm/hour) means±standard deviations, unless otherwise indicated.
# MCF7 cells = test: Time-lapse cinemicrography random motility; type: cell-based, human; conditions: for motility: peptide 1 μg/ml, 30 minutes prior to filming
# Experimental: as §1, with “Alternatively, cells were stimulated with 50 μg/L of HA immediately prior to filming.” left out
# [1] = Pharmacokinetic parameters of HA in serum by route of administration (competitive binding ELISA); type: in vivo
# Source text: Table 2 below is a summary of the kinetic analysis of HA in serum by different routes of administration.
# [2] = Kinetics and tolerability of HA injected I.V. in rats; type: in vivo; conditions: I.V. 1-12 mg/kg
# [3] = set-up: species or system mice; conditions: mouse, in vivo, iv
# Source text: J Am Chem Soc. 125(25): p. 7494-5, hereby incorporated by reference), MDA-MB-231 breast tumor xenografts which express high levels of Rhamm and CD44 (FIG. 2A) and the liver, whose endothelial cells express the HA endocytic receptor, Hare (See FIG. 13D and Weigel, P. H. and J. H. Yik, 2002. Glycans as endocytosis signals: the cases of the asialoglycoprotein and hyaluronan/chondroitin sulfate receptors. Biochim Biophys Acta. 1572(2-3): p. 341-63).
# [4] = set-up: species or system humans; conditions: human, in vivo, iv
# [5] = PD098059 50 μM and/or anti-Rhamm antibodies
# [6] = serum starved 24-48 hours, 25-50 μg/ml exogenous HA
# [7] = peptide 1 μg/ml, 30 minutes prior to filming
compound,measurement,setting,value
COc1cccc(-c2cc(=O)c3ccccc3o2)c1N [PD098059],basal motility rate,MDA-MB-231 cells; [5],significantly inhibited
same,basal motility,MCF7 cells; [5],no effect
Hyaluronan [HA],motility,MDA-MB-231 cells; [6],significantly stimulated motility
same,Cmax,[1]; Intravenous,5096.00 µg/mL
same,Tmax,[1]; Intravenous,12 h
same,Cmax,[1]; Oral,0.15 µg/mL
same,Tmax,[1]; Oral,36 h
same,Cmax,[1]; Subcutaneous,1454.00 µg/mL
same,Tmax,[1]; Subcutaneous,72 h
same,tolerability,[2],well tolerated
same,motility rate,MCF7 cells; [6],no effect
same,half-life,[3],up to 12 hrs
same,half-life,[4],up to 12 hrs
same,T1/2 (HA serum levels),[4]; 1.5 mg/kg,12 h
YKQKIKHVVKLK [HA-binding peptide],motility,MDA-MB-231 cells; [7],significantly reduced motility
same,motility,MCF7 cells,no effect
YLKQKKVKKHIV [scrambled control peptide],motility,MDA-MB-231 cells; [7],no effect
same,motility,MCF7 cells,no effect
